Laboratory results published in patent US9504729B2, “Antiangiogenic small molecules and methods of use” (The United States of America, as represented by the …, priority 2009, dated 2016).

System: angiogenesis genes in dermal microvascular endothelial cells
Assay: Real time RT-PCR of angiogenesis gene expression during endothelial tube formation
Type: cell-based
Conditions: 1 μM SM, 24 hours

Compound: COC(=O)C1CC(=O)C(C(=O)OC)CC1=O (centres unmarked) [Compound 122567]
- Log2 fold-change of gene expression: 1839: 1.0
- Log2 fold-change of gene expression: 4247: 0.3
- Log2 fold-change of gene expression: 5569: 0.8
- Log2 fold-change of gene expression: 8131: 0.1
- Log2 fold-change of gene expression: 9569: −2.2
- Log2 fold-change of gene expression: 10988: 1.2
- Log2 fold-change of gene expression: 23001: −0.5
- Log2 fold-change of gene expression: 55332: −1.0
- Log2 fold-change of gene expression: 57722: 0.1
- Log2 fold-change of gene expression: 58488: 1.5
- Log2 fold-change of gene expression: 90780: −1.9
- Log2 fold-change of gene expression: 134265: −0.2
- Log2 fold-change of gene expression: AKT1: −1.6
- Log2 fold-change of gene expression: ANGPT1: 1.6
- Log2 fold-change of gene expression: ANGPT2: −0.9
- Log2 fold-change of gene expression: ANGPTL3: −1.7
- Log2 fold-change of gene expression: ANGPTL4: −0.4
- Log2 fold-change of gene expression: ANPEP: −1.2
- Log2 fold-change of gene expression: ANTXR1: −3.5
- Log2 fold-change of gene expression: APOE: 0.8
- Log2 fold-change of gene expression: ARHGEF1: −5.0
- Log2 fold-change of gene expression: Acvrl1: −1.3
- Log2 fold-change of gene expression: Adcy4: −0.4
- Log2 fold-change of gene expression: BAL1: 0.2
- Log2 fold-change of gene expression: BMP1: 0.9
- Log2 fold-change of gene expression: C1orf54: −3.4
- Log2 fold-change of gene expression: CALD1: 2.3
- Log2 fold-change of gene expression: CCL2: 2.5
- Log2 fold-change of gene expression: CCL11: 0.6
- Log2 fold-change of gene expression: CD248: 1.2
- Log2 fold-change of gene expression: CDH5: −1.9
- Log2 fold-change of gene expression: CENTD3: 1.1
- Log2 fold-change of gene expression: CLIC1: 0.9
- Log2 fold-change of gene expression: COL4A3: 1.9
- Log2 fold-change of gene expression: COL18A1: 1.6
- Log2 fold-change of gene expression: COMT: −1.5
- Log2 fold-change of gene expression: CST4: 1.3
- Log2 fold-change of gene expression: CTTNBP2NL: −0.9
- Log2 fold-change of gene expression: CXCL3: 4.0
- Log2 fold-change of gene expression: CXCL5: 4.3
- Log2 fold-change of gene expression: CXCL6: 1.1
- Log2 fold-change of gene expression: CXCL9: 1.6
- Log2 fold-change of gene expression: CXCL10: 3.7
- Log2 fold-change of gene expression: Calcr1: −4.0
- Log2 fold-change of gene expression: Caskin2: −2.3
- Log2 fold-change of gene expression: Ccbp2: 1.4
- Log2 fold-change of gene expression: Cldn5: 0.0
- Log2 fold-change of gene expression: DGKG: 2.0
- Log2 fold-change of gene expression: DKK3: −1.9
- Log2 fold-change of gene expression: DLL4: −8.7
- Log2 fold-change of gene expression: DUT: −1.8
- Log2 fold-change of gene expression: EFNA1: −0.3
- Log2 fold-change of gene expression: EFNA3: −0.4
- Log2 fold-change of gene expression: EFNB2: −4.0
- Log2 fold-change of gene expression: EGF: −0.3
- Log2 fold-change of gene expression: ENG: −1.7
- Log2 fold-change of gene expression: EPHB4: −0.5
- Log2 fold-change of gene expression: EREG: 1.9
- Log2 fold-change of gene expression: ESAM1: −2.9
- Log2 fold-change of gene expression: EXTL3: 0.3
- Log2 fold-change of gene expression: Egf17: −2.6
- Log2 fold-change of gene expression: Ehd4: −0.8
- Log2 fold-change of gene expression: Entpd1: −0.3
- Log2 fold-change of gene expression: Epas1: 0.9
- Log2 fold-change of gene expression: EphB1: 0.8
- Log2 fold-change of gene expression: Erg: 2.4
- Log2 fold-change of gene expression: FGF1: 1.9
- Log2 fold-change of gene expression: FGF2: −0.7
- Log2 fold-change of gene expression: FGFR3: 1.2
- Log2 fold-change of gene expression: FIGF: −0.1
- Log2 fold-change of gene expression: FLT1: −4.4
- Log2 fold-change of gene expression: Fgd5: −1.5
- Log2 fold-change of gene expression: GPCR124: −3.7
- Log2 fold-change of gene expression: GRRP1: −0.3
- Log2 fold-change of gene expression: Grp116: −2.3
- Log2 fold-change of gene expression: HAND2: 0.4
- Log2 fold-change of gene expression: HGF: 1.3
- Log2 fold-change of gene expression: HIF1A: −3.1
- Log2 fold-change of gene expression: HPSE: −8.3
- Log2 fold-change of gene expression: Hspa12b: −3.4
- Log2 fold-change of gene expression: ID1: −0.2
- Log2 fold-change of gene expression: ID3: −0.3
- Log2 fold-change of gene expression: IFNA1: 1.1
- Log2 fold-change of gene expression: IFNB1: 1.2
- Log2 fold-change of gene expression: IFNG: 8.3
- Log2 fold-change of gene expression: IGF1: −0.1
- Log2 fold-change of gene expression: IL1B: −0.1
- Log2 fold-change of gene expression: IL6: 14.4
- Log2 fold-change of gene expression: IL8: 7.4
- Log2 fold-change of gene expression: ITGAV: −2.7
- Log2 fold-change of gene expression: ITGB3: −1.4
- Log2 fold-change of gene expression: Icam1: 0.0
- Log2 fold-change of gene expression: Icam2: 0.1
- Log2 fold-change of gene expression: JAG1: 0.6
- Log2 fold-change of gene expression: KDR: −2.3
- Log2 fold-change of gene expression: Kifc1: 1.1
- Log2 fold-change of gene expression: LAMAS5: −1.1
- Log2 fold-change of gene expression: LECT1: 0.3
- Log2 fold-change of gene expression: LEP: 0.2
- Log2 fold-change of gene expression: Lasts2: 4.8
- Log2 fold-change of gene expression: Lrrk1: −0.5
- Log2 fold-change of gene expression: MDK: −0.9
- Log2 fold-change of gene expression: MMP2: 0.3
- Log2 fold-change of gene expression: MMP9: 0.9
- Log2 fold-change of gene expression: MMP11: 1.3
- Log2 fold-change of gene expression: MRC2: 0.7
- Log2 fold-change of gene expression: Mmm2: −3.5
- Log2 fold-change of gene expression: Myo1b: −2.9
- Log2 fold-change of gene expression: NID1: −6.3
- Log2 fold-change of gene expression: NM023516: 0.2
- Log2 fold-change of gene expression: NRP1: −3.0
- Log2 fold-change of gene expression: NRP2: −4.3
- Log2 fold-change of gene expression: Notch4: −1.1
- Log2 fold-change of gene expression: Npr3: 1.5
- Log2 fold-change of gene expression: PALD: −0.5
- Log2 fold-change of gene expression: PDCD2: −0.4
- Log2 fold-change of gene expression: PDGFA: −1.7
- Log2 fold-change of gene expression: PECAM1: −2.7
- Log2 fold-change of gene expression: PGF: −4.9
- Log2 fold-change of gene expression: PLAU: −0.1
- Log2 fold-change of gene expression: PLG: −1.5
- Log2 fold-change of gene expression: PNMT: 1.1
- Log2 fold-change of gene expression: PROK2: 1.3
- Log2 fold-change of gene expression: PTGS1: 0.8
- Log2 fold-change of gene expression: PTPRCAP: 0.0
- Log2 fold-change of gene expression: Pltp: 1.5
- Log2 fold-change of gene expression: Ptprb: 0.5
- Log2 fold-change of gene expression: Ptprm: −0.4
- Log2 fold-change of gene expression: RAMP2: −5.8
- Log2 fold-change of gene expression: RASD2: 0.5
- Log2 fold-change of gene expression: Rasip1: −1.2
- Log2 fold-change of gene expression: S1PR1: −0.7
- Log2 fold-change of gene expression: SERPINF1: 0.2
- Log2 fold-change of gene expression: SPHK1: 0.9
- Log2 fold-change of gene expression: STAB1: −1.7
- Log2 fold-change of gene expression: Sdc4: 0.4
- Log2 fold-change of gene expression: Sdpr: 1.6
- Log2 fold-change of gene expression: Slc43a3: 1.8
- Log2 fold-change of gene expression: Slco2a1: −0.6
- Log2 fold-change of gene expression: TEK: 0.3
- Log2 fold-change of gene expression: TGFA: 2.0
- Log2 fold-change of gene expression: TGFB1: −1.2
- Log2 fold-change of gene expression: TGFB2: 1.2
- Log2 fold-change of gene expression: TGFBR1: 1.2
- Log2 fold-change of gene expression: THBS1: 0.1
- Log2 fold-change of gene expression: THBS2: 1.2
- Log2 fold-change of gene expression: THY1: −9.4
- Log2 fold-change of gene expression: TIMP1: −1.4
- Log2 fold-change of gene expression: TIMP2: −1.4
- Log2 fold-change of gene expression: TIMP3: −4.3
- Log2 fold-change of gene expression: TNF: −0.2
- Log2 fold-change of gene expression: TNS1: 0.0
- Log2 fold-change of gene expression: TNS3: 2.0
- Log2 fold-change of gene expression: TRA2B: −1.6
- Log2 fold-change of gene expression: TYMP: −0.3
- Log2 fold-change of gene expression: VEGFA: 4.9
- Log2 fold-change of gene expression: VEGFC: 1.8
- Log2 fold-change of gene expression: VGLL4: −3.5
- Log2 fold-change of gene expression: Vwf: −3.5
- Log2 fold-change of gene expression: copa: 0.1
- Log2 fold-change of gene expression: itbp4: −1.9
- Log2 fold-change of gene expression: ralb: 0.3
- Log2 fold-change of gene expression: stard9: 0.5
- Log2 fold-change of gene expression: B2M (1st listing (r49)): 0.1
- Log2 fold-change of gene expression: HPRT1 (1st listing (r50)): 0.0
- Log2 fold-change of gene expression: RPL13A (1st listing (r51)): 0.7
- Log2 fold-change of gene expression: GADPH (1st listing (r52)): −0.7
- Log2 fold-change of gene expression: ACTB (1st listing (r53)): −1.0
- Log2 fold-change of gene expression: PLXDC1 (1st listing (r74)): 0.7
- Log2 fold-change of gene expression: TNFAIP2 (1st listing (r91)): −1.0
- Log2 fold-change of gene expression: Robo4 (1st listing (r95)): 0.0
- Log2 fold-change of gene expression: 151516 (1st listing (r134)): 1.1
- Log2 fold-change of gene expression: TNFAIP2 (2nd listing (r92)): −1.1
- Log2 fold-change of gene expression: B2M (2nd listing (r97)): −0.2
- Log2 fold-change of gene expression: HPRT1 (2nd listing (r98)): 0.0
- Log2 fold-change of gene expression: RPL13A (2nd listing (r99)): 1.2
- Log2 fold-change of gene expression: GADPH (2nd listing (r100)): −0.8
- Log2 fold-change of gene expression: ACTB (2nd listing (r101)): −1.0
- Log2 fold-change of gene expression: PLXDC1 (2nd listing (r104)): −1.7
- Log2 fold-change of gene expression: 151516 (2nd listing (r139)): 1.3
- Log2 fold-change of gene expression: Robo4 (2nd listing (r188)): 1.2
- Log2 fold-change of gene expression: B2M (3rd listing (r145)): −0.2
- Log2 fold-change of gene expression: HPRT1 (3rd listing (r146)): −0.6
- Log2 fold-change of gene expression: RPL13A (3rd listing (r147)): 0.9
- Log2 fold-change of gene expression: GADPH (3rd listing (r148)): −0.7
- Log2 fold-change of gene expression: ACTB (3rd listing (r149)): −0.5
- Log2 fold-change of gene expression: B2M (4th listing (r193)): 0.3
- Log2 fold-change of gene expression: HPRT1 (4th listing (r194)): −0.2
- Log2 fold-change of gene expression: RPL13A (4th listing (r195)): 1.3
- Log2 fold-change of gene expression: GADPH (4th listing (r196)): −2.0
- Log2 fold-change of gene expression: ACTB (4th listing (r197)): −0.1
